Columns and labels:
[1] = target: T1, Endothelin receptor type B (Rattus norvegicus) (UniProt P21451); experiment: Concentration required to produce 50% inhibition of binding against ET B receptor obtained from rat brain membrane
T1 sequence (whole entry): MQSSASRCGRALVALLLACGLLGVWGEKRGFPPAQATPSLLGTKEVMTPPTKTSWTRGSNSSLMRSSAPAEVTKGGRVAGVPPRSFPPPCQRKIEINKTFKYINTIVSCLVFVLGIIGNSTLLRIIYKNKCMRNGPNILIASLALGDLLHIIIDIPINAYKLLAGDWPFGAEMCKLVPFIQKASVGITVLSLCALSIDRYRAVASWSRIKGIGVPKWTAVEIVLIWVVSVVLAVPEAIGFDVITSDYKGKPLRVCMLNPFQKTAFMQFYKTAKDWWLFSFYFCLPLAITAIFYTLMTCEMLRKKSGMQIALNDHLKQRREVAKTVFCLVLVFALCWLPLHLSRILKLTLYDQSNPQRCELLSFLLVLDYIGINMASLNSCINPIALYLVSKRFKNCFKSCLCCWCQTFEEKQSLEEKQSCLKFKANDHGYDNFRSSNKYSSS

[2] = target: T2, Endothelin-1 receptor (Rattus norvegicus) (UniProt P26684); experiment: Concentration required to produce 50% inhibition of binding against ET A receptor obtained from rat thoracic aortic membrane
T2 sequence (whole entry): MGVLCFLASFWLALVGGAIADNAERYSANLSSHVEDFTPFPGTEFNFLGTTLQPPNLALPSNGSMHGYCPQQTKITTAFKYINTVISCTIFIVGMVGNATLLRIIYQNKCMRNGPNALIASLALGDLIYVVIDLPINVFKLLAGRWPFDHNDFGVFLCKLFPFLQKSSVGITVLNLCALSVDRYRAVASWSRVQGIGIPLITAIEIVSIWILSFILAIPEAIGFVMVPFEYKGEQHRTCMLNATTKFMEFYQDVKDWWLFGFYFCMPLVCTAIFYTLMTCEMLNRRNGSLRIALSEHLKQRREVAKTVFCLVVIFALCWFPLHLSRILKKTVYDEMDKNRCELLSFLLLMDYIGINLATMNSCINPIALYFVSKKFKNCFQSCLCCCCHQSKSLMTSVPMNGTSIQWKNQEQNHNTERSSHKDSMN

In the case of `CC[C@@H](C)[C@H](NC(=O)[C@H](CC(=O)O)NC(=O)[C@H](CC(C)C)NC(=O)[C@H](Cc1c[nH]cn1)NC(=O)[C@H](CS)NC(=O)[C@H](Cc1ccccc1)NC(=O)[C@H](Cc1ccc(O)cc1)NC(=O)[C@@H](NC(=O)[C@H](CS)NC(=O)[C@H](CCC(=O)O)NC(=O)[C@H](CCCCN)NC(=O)[C@H](CC(=O)O)NC(=O)[C@H](CCSC)NC(=O)[C@H](CC(C)C)NC(=O)[C@H](CO)NC(=O)[C@H](CO)NC(=O)[C@H](CS)NC(=O)[C@H](CO)NC(=O)[C@@H](N)CS)C(C)C)C(=O)N[C@@H](C)C(=O)N[C@@H](Cc1c[nH]c2ccccc12)C(=O)O`, the pIC50 [1] is reported as 9.4 and the pIC50 [2] is reported as 7.53.
Compound `CC[C@@H](C)[C@H](NC(=O)[C@H](CC(=O)O)NC(=O)[C@H](CC(C)C)NC(=O)[C@H](Cc1c[nH]cn1)NC(=O)[C@H](CS)NC(=O)[C@H](Cc1ccccc1)NC(=O)[C@H](Cc1ccc(O)cc1)NC(=O)[C@@H](NC(=O)[C@H](CS)NC(=O)[C@H](CCC(=O)O)NC(=O)[C@H](CCCCN)NC(=O)[C@H](CC(=O)O)NC(=O)[C@H](CCSC)NC(=O)[C@H](CC(C)C)NC(=O)[C@H](CO)NC(=O)[C@H](CO)NC(=O)[C@H](CS)NC(=O)[C@H](CO)NC(=O)[C@@H](N)CS)C(C)C)C(=O)N[C@@H](C(=O)N[C@@H](Cc1c[nH]c2ccccc12)C(=O)O)c1ccccc1` has a pIC50 [1] of 8.6 and a pIC50 [2] of 6.85.
For `CC[C@@H](C)[C@H](NC(=O)[C@H](CC(=O)O)NC(=O)[C@H](CC(C)C)NC(=O)[C@H](Cc1c[nH]cn1)NC(=O)[C@H](CS)NC(=O)[C@H](Cc1ccccc1)NC(=O)[C@H](Cc1ccc(O)cc1)NC(=O)[C@@H](NC(=O)[C@H](CS)NC(=O)[C@H](CCC(=O)O)NC(=O)[C@H](CCCCN)NC(=O)[C@H](CC(=O)O)NC(=O)[C@H](CCSC)NC(=O)[C@H](CC(C)C)NC(=O)[C@H](CO)NC(=O)[C@H](CO)NC(=O)[C@H](CS)NC(=O)[C@H](CO)NC(=O)[C@@H](N)CS)C(C)C)C(=O)N[C@H](Cc1ccccc1)C(=O)N[C@@H](Cc1c[nH]c2ccccc12)C(=O)O`, the pIC50 [1] was 8.6 and the pIC50 [2] was 6.07.
`CC[C@@H](C)[C@H](NC(=O)[C@H](CC(=O)O)NC(=O)[C@H](CC(C)C)NC(=O)[C@H](Cc1c[nH]cn1)NC(=O)[C@H](CS)NC(=O)[C@H](Cc1ccccc1)NC(=O)[C@H](Cc1ccc(O)cc1)NC(=O)[C@@H](NC(=O)[C@H](CS)NC(=O)[C@H](CCC(=O)O)NC(=O)[C@H](CCCCN)NC(=O)[C@H](CC(=O)O)NC(=O)[C@H](CCSC)NC(=O)[C@H](CC(C)C)NC(=O)[C@H](CO)NC(=O)[C@H](CO)NC(=O)[C@H](CS)NC(=O)[C@H](CO)NC(=O)[C@@H](N)CS)C(C)C)C(=O)N[C@@H](C(=O)N[C@@H](Cc1c[nH]c2ccccc12)C(=O)O)C1CCCCC1` was tested, and the pIC50 [1] was 9.59 and the pIC50 [2] was 7.04.
With `CC[C@@H](C)[C@H](NC(=O)[C@H](CC(=O)O)NC(=O)[C@H](CC(C)C)NC(=O)[C@H](Cc1c[nH]cn1)NC(=O)[C@H](CS)NC(=O)[C@H](Cc1ccccc1)NC(=O)[C@H](Cc1ccc(O)cc1)NC(=O)[C@@H](NC(=O)[C@H](CS)NC(=O)[C@H](CCC(=O)O)NC(=O)[C@H](CCCCN)NC(=O)[C@H](CC(=O)O)NC(=O)[C@H](CCSC)NC(=O)[C@H](CC(C)C)NC(=O)[C@H](CO)NC(=O)[C@H](CO)NC(=O)[C@H](CS)NC(=O)[C@H](CO)NC(=O)[C@@H](N)CS)C(C)C)C(=O)N[C@@H](Cc1c[nH]c2ccccc12)C(=O)N[C@@H](Cc1c[nH]c2ccccc12)C(=O)O` the pIC50 [1] was 9.77 and the pIC50 [2] was 6.71.

Reference: ChEMBL document CHEMBL1127286, “Quantitative structure-activity relationships study of endothelin-1 analogs” (Bioorg Med Chem Lett, 1994)
